The text below walks through data of patent publication US20210292340A1, “CELL NECROSIS INHIBITOR, PREPARATION METHOD THEREFOR AND USE THEREOF” (SHANGHAI INSTITUTE OF ORGANIC CHEMISTRY, CHINESE ACADEMY OF …, priority 2018, published 2021).

This assay concerns Jurkat (FADD−/−) cells. Description: Inhibition of TNF-induced programmed Jurkat (FADD−/−) cell necrosis (Cell Titer-Glo). It counts as cell-based, human. As to conditions: Homo sapiens, Jurkat, 20 h, TNF 10 ng/mL, intracellular ATP level, read-out: Cellular IC50 (M) Jurkat (FADD−/−). The method, then:
Two replicate wells were set for each concentration of each compound.
Jurkat (FADD^−/−) cells (human-derived peripheral blood leukemia T cell line, with FADD gene knocked out) were cultured in vitro. After growing to logarithmic growth phase, the cells were harvested, and centrifuged at 1000 rpm for 5 min. The supernatant was discarded, and the cells were resuspended in fresh medium and adjusted to a cell density of 5×10^5/mL. The cell suspension was added to the culture plate containing the drug (40 μL per well). In the treatment groups, 10 μL of TNF (tumor necrosis factor, final concentration 10 ng/mL) diluted with the cell culture medium was added to each well, and incubated for 20 h in a cell incubator (37° C., 5% CO2). Subsequently, 50 μL of Cell Titer-Glo solution was added to each well and incubated at room temperature for 10 min. Then, the luminescence was detected on BioTek plate reader to measure the intracellular ATP level. The effect of the test compounds in inhibiting TNF-induced cell necrosis was calculated from the full-activity well and background well (with the untreated DMSO control well as 100% cell viability), and the half inhibitory concentration (IC50) of the compound was calculated by Graphpad Prism statistical software.
On the technique in general: In ATP-based viability assays light output follows the ATP content of the culture.
Take `CN1C(=O)[C@@H](NC(=O)c2n[nH]c(Cc3ccccc3)n2)COc2ccccc21` [GSK2982772, reference compound]: the IC50 is 9.7e-10 M. To `CN1C(=O)[C@@H](NC(=O)c2ncn(Cc3ccccc3)n2)CSc2cc3c(ccn3Cc3ccccc3)cc21` [RIP1-086] belongs over 2e-06 M; to `CN1C(=O)[C@@H](NC(=O)c2n[nH]c(Cc3c(F)cccc3F)n2)COc2cc3ncoc3cc21` [RIP1-183], 6.15e-09 M. As for `CN1C(=O)[C@@H](NC(=O)c2n[nH]c(Cc3c(F)cc(F)cc3F)n2)COc2ccc3ncccc3c21` [RIP1-169], the IC50 worked out at 1.13e-07 M. To `COc1ncnc2cc3c(cc12)N(C)C(=O)[C@@H](NC(=O)c1n[nH]c(Cc2c(F)cc(F)cc2F)n1)CO3` [RIP1-157] belongs 2.49e-07 M; to `CN1C(=O)[C@@H](NC(=O)c2ncn(Cc3ccccc3)n2)COc2cc3[nH]ccc3cc21` [RIP1-113], 3.07e-10 M; to `CN1C(=O)[C@@H](NC(=O)c2n[nH]c(Cc3ccccc3)n2)COc2ccc3cccnc3c21` [RIP1-148], 1.07e-08 M.

For the compound `CN1C(=O)[C@@H](NC(=O)c2cc(Oc3ccc(F)cc3)ccn2)COc2ccc3ncccc3c21` [RIP1-197], the IC50 was 2.92e-08 M.

In the case of `CN1C(=O)[C@@H](NC(=O)c2nccc(Oc3ccccc3)n2)COc2cc3nccnc3cc21` [RIP1-215], the IC50 was 3.45e-07 M. As for `CN1C(=O)[C@@H](NC(=O)c2cc(Oc3cccc(F)c3)ccn2)COc2ccc3ncccc3c21` [RIP1-204], the IC50 came to 3.04e-09 M. To `CN1C(=O)[C@@H](NC(=O)c2cccc(Cc3ccccc3)c2)CSc2cc3c(ccn3C)cc21` [RIP1-011] belongs 3.24e-07 M; to `CN1C(=O)[C@@H](NC(=O)c2cc(Oc3c(F)cccc3F)ccn2)COc2ccc3ncccc3c21` [RIP1-198], 4.57e-09 M; to `Cc1ccc(Cc2cc(C(=O)N[C@H]3COc4cc5[nH]c(C)nc5cc4N(C)C3=O)nn2C)cc1` [RIP1-072], 9.65e-08 M. On to `CN1C(=O)[C@@H](NC(=O)c2n[nH]c(Cc3ccccc3F)n2)COc2cc3ncoc3cc21` [RIP1-206], for which the IC50 turned out to be 8.18e-10 M.

Consider `CC(=O)n1ncc2cc3c(cc21)SC[C@H](NC(=O)c1cc(Cc2ccccc2)on1)C(=O)N3C` [RIP1-018], for which the IC50 is 2.7e-10 M.

Take `COc1ncnc2cc3c(cc12)N(C)C(=O)[C@@H](NC(=O)c1n[nH]c(Cc2ccccc2F)n1)CO3` [RIP1-160]: the IC50 turned out to be 2.2e-09 M. In the case of `CN1C(=O)[C@@H](NC(=O)c2ncn(Cc3ccccc3)n2)CSc2ccc3cnccc3c21` [RIP1-103], the IC50 was determined as 6.75e-09 M. To `CN1C(=O)[C@@H](NC(=O)c2cc(Oc3ccccc3)ccn2)COc2cc3[nH]ncc3cc21` [RIP1-190] belongs 1.44e-10 M; to `CN1C(=O)[C@@H](NC(=O)c2cnn(Cc3ccccc3)c2)COc2cc3[nH]c(=O)[nH]c3cc21` [RIP1-074], over 2e-06 M; to `CN1C(=O)[C@@H](NC(=O)c2ncn(Cc3ccccc3)n2)CSc2cc3[nH]ccc3cc21` [RIP1-008], 2.4e-10 M.

In the case of `CN1C(=O)[C@@H](NC(=O)c2n[nH]c(Cc3c(F)cccc3F)n2)COc2cc3[nH]nnc3cc21` [RIP1-166], the IC50 came to 2.98e-07 M. In the case of `CN1C(=O)[C@@H](NC(=O)c2nnc(Cc3ccccc3)[nH]2)COc2cc3ocnc3cc21` [RIP1-218], the IC50 turned out to be 1.24e-09 M. To `CN1C(=O)[C@@H](NC(=O)c2cc(Cc3ccccc3)on2)CSc2cc3c(ccn3C)cc21` [RIP1-009] belongs 1.08e-09 M; to `COc1ncnc2cc3c(cc12)N(C)C(=O)[C@@H](NC(=O)c1n[nH]c(Cc2c(F)cccc2F)n1)CO3` [RIP1-156], 2.8e-08 M; to `CN1C(=O)[C@@H](NC(=O)c2ncn(Cc3ccccc3)n2)CSc2cc3[nH]nc(Cl)c3cc21` [RIP1-026], 2.8e-10 M. To `CN1C(=O)[C@@H](NC(=O)c2n[nH]c(Cc3ccccc3F)n2)COc2cc3nccnc3cc21` [RIP1-208] belongs 1.49e-09 M. To `CN1C(=O)[C@@H](NC(=O)c2nnn(Cc3ccccc3)n2)COc2cc3[nH]c(=O)[nH]c3cc21` [RIP1-075] belongs 4.73e-10 M. In the case of `CN1C(=O)[C@@H](NC(=O)c2cn(Cc3ccccc3)nn2)CSc2ccc3ncccc3c21` [RIP1-095], the IC50 was found to be 9.85e-09 M.

Take `CN1C(=O)[C@@H](NC(=O)c2nnc(Cc3ccccc3)o2)CSc2cc3[nH]ccc3cc21` [RIP1-041]: the IC50 amounted to 3.79e-10 M. As to `CN1C(=O)[C@@H](NC(=O)c2ncn(Cc3ccccc3)n2)CSc2cc3c(ccn3C)cc21` [RIP1-012], the IC50 was 1.22e-09 M. In the case of `CN1C(=O)[C@@H](NC(=O)c2cc(Cc3ccccc3)ccn2)COc2cc3ncoc3cc21` [RIP1-221], the IC50 stood at 7.31e-09 M. To `CN1C(=O)[C@@H](NC(=O)c2nnc(Cc3cccc(F)c3)[nH]2)COc2cc3ocnc3cc21` [RIP1-217] belongs 1.38e-09 M. For `CN1C(=O)[C@@H](NC(=O)c2cnn(Cc3ccccc3)c2)CSc2cc3[nH]ccc3cc21` [RIP1-004], the IC50 amounted to 5.63e-08 M. To `CN1C(=O)[C@@H](NC(=O)c2cc(Cc3ccccc3)on2)CSc2cc3[nH]nc(Cl)c3cc21` [RIP1-029] belongs 1.2e-10 M; to `CN1C(=O)[C@@H](NC(=O)c2cn(Cc3ccccc3)cn2)CSc2ccc3cnccc3c21` [RIP1-104], 7.4e-10 M. Take `CN1C(=O)[C@@H](NC(=O)c2cc(Oc3ccccc3)ccn2)COc2ccc3cnccc3c21` [RIP1-178]: the IC50 is 3.23e-10 M.

Regarding `CN1C(=O)[C@@H](NC(=O)c2cnc(Cc3ccccc3)o2)CSc2cc3c(ccn3Cc3ccccc3)cc21` [RIP1-087], the IC50 was over 2e-06 M.

Take `CN1C(=O)[C@@H](NC(=O)c2nc(Cc3ccccc3)n[nH]2)COc2cc3[nH]c(=O)[nH]c3cc21` [RIP1-076]: the IC50 was over 2e-06 M.

On to `CN1C(=O)[C@@H](NC(=O)c2cn(Cc3ccccc3)cn2)CSc2cc3occc3cc21` [RIP1-036], for which the IC50 turned out to be 1.8e-10 M. To `CN1C(=O)[C@@H](NC(=O)c2n[nH]c(Cc3cccc(F)c3)n2)COc2cc3ncoc3cc21` [RIP1-222] belongs 5.62e-09 M; to `CN1C(=O)[C@@H](NC(=O)c2n[nH]c(Cc3c(F)cccc3F)n2)COc2ccc3cnccc3c21` [RIP1-161], 8.6e-09 M; to `CN1C(=O)[C@@H](NC(=O)c2n[nH]c(Cc3ccc(F)cc3)n2)COc2cc3ncoc3cc21` [RIP1-185], 2.72e-09 M.

Regarding `CN1C(=O)[C@@H](NC(=O)c2n[nH]c(Cc3ccc(F)cc3)n2)COc2cc3nccnc3cc21` [RIP1-207], the IC50 came out at 4.88e-09 M. To `CN1C(=O)[C@@H](NC(=O)c2cc(Cc3ccccc3)on2)COc2cc3[nH]c(C(F)(F)F)nc3cc21` [RIP1-077] belongs 1.68e-08 M.

As to `CN1C(=O)[C@@H](NC(=O)c2cn(Cc3ccccc3)nn2)COc2cc3[nH]c(C(F)(F)F)nc3cc21` [RIP1-078], the IC50 amounted to 3.11e-08 M. As for `CN1C(=O)[C@@H](NC(=O)c2nnc(Cc3ccccc3F)[nH]2)COc2cc3ocnc3cc21` [RIP1-219], the IC50 is 6.75e-10 M.

For `CN1C(=O)[C@@H](NC(=O)c2n[nH]c(Cc3ccc(F)cc3)n2)COc2cc3[nH]nnc3cc21` [RIP1-167], the IC50 stood at 1.6e-06 M. To `CN1C(=O)[C@@H](NC(=O)c2ccc(Oc3ccccc3)cn2)COc2ccc3ncccc3c21` [RIP1-196] belongs over 2e-05 M; to `CN1C(=O)[C@@H](NC(=O)c2n[nH]c(Cc3ccccc3)n2)COc2cc3ncoc3cc21` [RIP1-182], 8.16e-10 M; to `CN1C(=O)[C@@H](NC(=O)c2nccc(Oc3ccccc3)n2)COc2cc3ncoc3cc21` [RIP1-213], 7.68e-08 M. To `CN1C(=O)[C@@H](NC(=O)c2n[nH]c(Cc3ccc(F)cc3)n2)COc2ccc3cnccc3c21` [RIP1-164] belongs 3.3e-09 M; to `CN1C(=O)[C@@H](NC(=O)c2nnc(Oc3ccccc3)[nH]2)COc2cc3ncoc3cc21` [RIP1-211], 2.72e-07 M; to `CN1C(=O)[C@@H](NC(=O)c2nnn(Cc3ccccc3)n2)CSc2cc3[nH]ccc3cc21` [RIP1-043], 1.31e-10 M.

As to `CN1C(=O)[C@@H](NC(=O)c2cn(Cc3ccccc3)cn2)CSc2cc3[nH]ccc3cc21` [RIP1-006], the IC50 is 1.25e-09 M.

`COc1ncnc2cc3c(cc12)N(C)C(=O)[C@@H](NC(=O)c1n[nH]c(Cc2cccc(F)c2)n1)CO3` [RIP1-159]: the IC50 came to 8.7e-09 M. To `CN1C(=O)[C@@H](NC(=O)c2cn(Cc3ccccc3)nn2)CSc2cc3occc3cc21` [RIP1-040] belongs 3.6e-10 M; to `CN1C(=O)[C@@H](NC(=O)c2cnc(Cc3ccccc3)[nH]2)CSc2cc3[nH]ccc3cc21` [RIP1-047], 2.15e-08 M; to `Cc1ccc(Cc2cc(C(=O)N[C@H]3COc4cc5[nH]nnc5cc4N(C)C3=O)nn2C)cc1` [RIP1-141], 2.19e-08 M.

Consider `CN1C(=O)[C@@H](NC(=O)c2nc(Cc3ccccc3)n(C)n2)COc2cc3ncoc3cc21` [RIP1-220], for which the IC50 is over 2e-05 M.

`CN1C(=O)[C@@H](NC(=O)c2cn(Cc3ccccc3)nn2)CSc2cc3[nH]ccc3cc21` [RIP1-042]: the IC50 came out at 1.93e-09 M. Turning to `CN1C(=O)[C@H](NC(=O)c2cnn(Cc3ccccc3)c2)COc2cc3c(ccn3C)cc21` [RIP1-082], the IC50 was over 2e-06 M. With `CN1C(=O)[C@@H](NC(=O)c2n[nH]c(Cc3ccccc3)n2)COc2cc3ncnc(O)c3cc21` [RIP1-187], the IC50 turned out to be 2.59e-07 M. To `CN1C(=O)[C@@H](NC(=O)c2cnc(Cc3ccccc3)o2)COc2cc3[nH]c(C(F)(F)F)nc3cc21` [RIP1-079] belongs over 2e-06 M; to `CN1C(=O)[C@@H](NC(=O)c2cn(Cc3ccccc3)cn2)COc2cc3[nH]ccc3cc21` [RIP1-114], 8.46e-10 M.
